Reference: patent US20040260318A1, “Anastomotic connector devices” (Angiotech International AG, priority 2003, published 2004)

Columns and labels:
[1] = system: Primary human smooth muscle cells; assay: Screening assay for smooth muscle cell migration (Boyden chamber, rhPDGF-BB chemotaxis); type: cell-based; conditions: 4 hours migration toward rhPDGF-BB 10 ng/mL, FIG. 8
Description: Primary human smooth muscle cells are starved of serum in smooth muscle cell basal media containing insulin and human basic fibroblast growth factor (bFGF) for 16 hours prior to the assay. […] A 100 μL volume of smooth muscle cells (approximately 20,000-25,000 cells) is added to the top of a Boyden chamber assembly (Chemicon QCM Chemotaxis 96-well migration plate). To the bottom wells, the chemotactic agent, recombinant human platelet derived growth factor (rhPDGF-BB) is added at a concentration of 10 ng/mL in a total volume of 150 μL. Paclitaxel is prepared in DMSO at a concentration of 10^−2 M and serially diluted 10-fold to give a range of stock concentrations (10^−8 M to 10^−2 M). Paclitaxel is added to cells by directly adding paclitaxel DMSO stock solutions, prepared earlier, at a 1/1000 dilution, to the cells in the top chamber. […]
At the end of the 4 hour period, cells in the top chamber are discarded and the smooth muscle cells attached to the underside of the filter are detached for 30 minutes at 37° C. in Cell Detachment Solution (Chemicon). […] Relative fluorescence units from triplicate wells are averaged after subtracting background fluorescence (control chamber without chemoattractant) and average number of cells migrating is obtained from a standard curve of smooth muscle cells serially diluted from 25,000 cells/well down to 98 cells/well.

[2] = system: AP-1 transcriptional activity; assay: IL-1 stimulated AP-1 driven CAT reporter gene activity in chondrocytes; type: cell-based; conditions: transfected chondrocytes, concentration dependent, 10^−7 to 10^−5 M
Excerpt: The results shown are representative of three independent experiments.

[3] = system: AP-1 DNA binding activity; assay: IL-1 induced AP-1 DNA binding activity, gel mobility shift assay; type: cell-based; conditions: chondrocyte lysates, pretreated at 10^−7 to 10^−5 M for 24 hours
Description: Binding activity was assayed with a radiolabeled human AP-1 sequence probe and gel mobility shift assay. Extracts from chondrocytes untreated or treated with various amounts of paclitaxel (10^−7 to 10^−5 M) followed by IL-1β (20 ng/ml) were incubated with excess probe on ice for 30 minutes, followed by non-denaturing gel electrophoresis. The “com” lane contains excess unlabeled AP-1 oligonucleotide.

[4] = Solubility in water; type: physicochemical
[5] = system: Chick Chorioallantoic Membrane; assay: Chick chorioallantoic membrane (CAM) angiogenesis assay; conditions: for Inhibition/n: 48 hours
[6] = system: collagenase (MMP-1) mRNA; assay: IL-1 induced MMP-1 (collagenase) mRNA expression in chondrocytes, Northern blot
[7] = system: stromelysin (MMP-3) mRNA; assay: IL-1 induced MMP-3 (stromelysin) mRNA expression in chondrocytes, Northern blot
[8] = chondrocytes pretreated for 24 hours, IL-1 induced

With `CC(=O)O[C@H]1C(=O)[C@@]2(C)[C@H]([C@H](OC(=O)c3ccccc3)[C@]3(O)C[C@H](OC(=O)[C@H](O)[C@@H](NC(=O)c4ccccc4)c4ccccc4)C(C)=C1C3(C)C)[C@]1(OC(C)=O)CO[C@@H]1C[C@@H]2O` [paclitaxel, 5β,20-Epoxy-1,2Alpha,4,7β,10β,13Alpha-hexahydroxytax-11-en-9-one-4,10-diacetate-2-benzoate-13-(Alpha-phenylhippurate)] as the compound, how does the IC50 [1] read?
The IC50 was 0.76 nM.

What about the “IL-1 induced AP-1 reporter gene CAT activity” value [2] of the same compound?
Its value is “reduced”.

And the “IL-1 induced AP-1 binding activity to DNA” value [3]?
The value was “decreased”.

And the solubility in water [4]?
Its solubility in water is “insoluble in water”.

And the Inhibition/n ([5]; 0.25 ug in methylcellulose (10 ul) disk, CAMs with positive antiangiogenesis response / n)?
Its Inhibition/n is 2/11.

What about the Inhibition/n ([5]; 0.5 ug in methylcellulose (10 ul) disk) of the same compound?
Its Inhibition/n is 6/11.

What about the Inhibition/n ([5]; 1 ug in methylcellulose (10 ul) disk) of the same compound?
The Inhibition/n was 6/15.

And the Inhibition/n ([5]; 5 ug in methylcellulose (10 ul) disk)?
Its Inhibition/n is 20/27.

And the Inhibition/n ([5]; 10 ug in methylcellulose (10 ul) disk)?
Its Inhibition/n is 16/21.

And the Inhibition/n ([5]; 30 ug in methylcellulose (10 ul) disk)?
The Inhibition/n was 31/31.

And the “angiogenesis in the CAM” value ([5]; 48 hours after application)?
Its value is “inhibited”.

And the “avascular gradient scale, maximal avascular zone” value ([5]; within 48 hours, depending on concentration)?
Its value is 3.

What about the “concentration inhibiting collagenase expression in vitro” value [6] of the same compound?
Its value is 10^−6 M.

And the “inhibition of collagenase mRNA expression” value ([6]; at 10^−5 M)?
The value was “complete inhibition”.

What about the “levels of collagenase mRNA” value [6, 8] of the same compound?
Its value is “significantly reduced”.

What about the “concentration inhibiting stromelysin expression in vitro” value [7] of the same compound?
The value was 10^−6 M.

And the “inhibition of stromelysin mRNA expression” value ([7]; at 10^−5 M)?
The value was “complete inhibition”.

What about the “levels of stromelysin mRNA” value [7, 8] of the same compound?
Its value is “significantly reduced”.
